Values quoted from earlier work as cited in patent US11229683B2, “Hematopoietic growth factor proteins and analogs thereof and angiotensin converting enzyme inhibitors for treatment of radiation exposure” (priority 2015, dated 2022).
Like-named read-outs stand apart in the source and are kept apart here.

Assays:
8.25 Gy-irradiated mice = conditions: cited from earlier work
7 Gy-irradiated rats = conditions: 7 Gy rats; captopril 0.3 g/L in drinking water from day −7 to Day 0; cited from earlier work
7.5 Gy-irradiated mice = conditions: cited from earlier work
plasma ACE activity = target: T1, plasma ACE activity (Mus musculus, UniProt P09470); conditions: all 3 doses: 10, 30, or 90 mg/kg sc twice per day; cited from earlier work
T1 construct: host or cells: plasma of perindopril-treated mice (endogenous enzyme)
T1 sequence (P09470 35-1237 limits assumed): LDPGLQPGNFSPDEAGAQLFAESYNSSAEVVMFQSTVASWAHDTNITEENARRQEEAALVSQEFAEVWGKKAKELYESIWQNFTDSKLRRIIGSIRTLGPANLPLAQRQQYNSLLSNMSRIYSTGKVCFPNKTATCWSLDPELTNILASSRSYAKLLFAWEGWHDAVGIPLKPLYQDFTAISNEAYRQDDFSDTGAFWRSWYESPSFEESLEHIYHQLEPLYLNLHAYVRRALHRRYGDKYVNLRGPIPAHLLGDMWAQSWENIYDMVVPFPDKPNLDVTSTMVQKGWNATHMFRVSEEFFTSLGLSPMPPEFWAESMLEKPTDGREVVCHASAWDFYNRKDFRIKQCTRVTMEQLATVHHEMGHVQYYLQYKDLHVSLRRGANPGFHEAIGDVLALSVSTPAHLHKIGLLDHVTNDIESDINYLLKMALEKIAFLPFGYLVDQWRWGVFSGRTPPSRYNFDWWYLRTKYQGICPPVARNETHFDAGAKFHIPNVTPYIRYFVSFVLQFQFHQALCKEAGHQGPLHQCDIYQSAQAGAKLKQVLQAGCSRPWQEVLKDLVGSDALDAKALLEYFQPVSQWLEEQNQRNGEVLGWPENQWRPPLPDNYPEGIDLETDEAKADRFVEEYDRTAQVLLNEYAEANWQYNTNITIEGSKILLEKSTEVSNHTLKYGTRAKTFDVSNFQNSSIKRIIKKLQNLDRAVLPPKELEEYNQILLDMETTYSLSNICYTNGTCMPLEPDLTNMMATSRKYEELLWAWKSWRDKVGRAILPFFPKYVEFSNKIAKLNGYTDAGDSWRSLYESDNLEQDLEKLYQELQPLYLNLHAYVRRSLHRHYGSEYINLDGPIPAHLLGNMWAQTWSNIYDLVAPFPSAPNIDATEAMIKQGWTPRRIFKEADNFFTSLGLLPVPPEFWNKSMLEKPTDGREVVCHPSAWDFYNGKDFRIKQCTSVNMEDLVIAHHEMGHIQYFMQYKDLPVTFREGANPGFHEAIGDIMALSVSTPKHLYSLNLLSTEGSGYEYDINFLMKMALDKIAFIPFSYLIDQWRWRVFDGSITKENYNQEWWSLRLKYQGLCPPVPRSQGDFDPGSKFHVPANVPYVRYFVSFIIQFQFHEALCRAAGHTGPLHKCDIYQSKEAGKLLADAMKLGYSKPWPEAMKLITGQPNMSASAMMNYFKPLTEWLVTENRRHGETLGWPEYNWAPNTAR

8.3 Gy irradiated mice = conditions: cited from earlier work; for 48-day survival vs water: 8.3 Gy
irradiated monkeys = conditions: cited from earlier work; for survival versus vehicle: daily sc treatment started 48 h post-TBI
[1] = test system: chemotherapy (cyclophosphamide)-treated rats; conditions: single injection; cited from earlier work
[2] = sc 30 mg/kg twice per day for 4 days starting 48 hours before irradiation

Molecule: C[C@H](CS)C(=O)N1CCC[C@H]1C(=O)O [Captopril]
- 30-day survival (8.25 Gy-irradiated mice; captopril 0.55 g/L in drinking water from day 1 to day 30 post-TBI, genestein (if given) 200 mg/kg sc 24 h pre-TBI): 45%
- 30-day survival (8.25 Gy-irradiated mice; captopril from day 0 (1 h post-TBI) to day 30, genestein (if given) 200 mg/kg sc 24 h pre-TBI): 55%
- 30-day survival (7 Gy-irradiated rats): 24%
- 30-day survival (7.5 Gy-irradiated mice; captopril 0.55 g/L in drinking water from day −7 until Day 0): 0%
- 30-day survival (7.5 Gy-irradiated mice; captopril from day 0 (1 hour post-TBI) until Day 30 post-TBI): 100%
- 30-day survival (7.5 Gy-irradiated mice; captopril from day 1 (24 h) post-TBI until Day 7 post-TBI): 85%
- 30-day survival (7.5 Gy-irradiated mice; captopril from day −7 prior to TBI until Day 30 post-TBI): 15%

Molecule: CCC[C@H](N[C@@H](C)C(=O)N1[C@H](C(=O)O)C[C@@H]2CCCC[C@@H]21)C(=O)OCC [perindopril]
- inhibition of plasma ACE activity (plasma ACE activity): 100%
- 48-day survival vs water (8.3 Gy irradiated mice; sc 10 mg/kg twice per day for 4 days starting 48 hours before irradiation): did not significantly improve
- 48-day survival vs water (8.3 Gy irradiated mice; [2]): did significantly improve survival
- 48-day survival vs water (8.3 Gy irradiated mice; sc 90 mg/kg twice per day for 4 days starting 48 hours before irradiation): did significantly improve survival
- 30-day survival versus water (8.3 Gy irradiated mice; [2]): improved 30-day survival

B1: G-CSF: human G-CSF (filgrastim (Neupogen, Amgen, Inc.) (protein, listed as Homo sapiens)
chain: TPLGPASSLPQSFLLKCLEQVRKIQGDGAALQEKLCATYKLCHPEELVLLGHSLGIPWAPLSSCPSQALQLAGCLSQLHSGLFLYQGLLQALEGISPELGPTLDTLQLDVADFATTIWQQMEELGMAPALQPTQGAMPAFASAFQRRAGGVLVASHLQSFLEVSYRVLRHLAQP
- 60-day survival of rhesus monkeys (irradiated monkeys; daily sc 0.01 mg/kg/day for 16-23 days, started 24 h post-TBI): increased 60-day survival
- survival of irradiated monkeys (irradiated monkeys; daily sc beginning 24 h post-TBI for about 16 days, placebo 50%): 80%
- survival versus vehicle (irradiated monkeys): did not increase survival
- survival versus vehicle (irradiated monkeys; listed as filgrastim): but not when administered at 48 h post-TBI
- recovery from neutropenia [1]: ineffective
